What was measured:
[1] = target: T1, G2019S human LRRK2, catalytic site (Homo sapiens, UniProt Q5S007, G2019S); experiment: TR-FRET LanthaScreen Eu Kinase Binding Assay, LRRK2 G2019S; settings: LRRK2(G2019); one range stated for wt and G2019; read-out: IC50, Activity Toward LRRK2(G2019)
T1 construct: G2019S human LRRK2, catalytic site; purchased ThermoFisher
Method: (§1) The basic protocol for TR-FRET LanthaScreen Eu Kinase Binding Assay inhibitor studies were performed as follows. LanthaScreen Kinase Binding Assays (ThermoFisher/USA) to evaluate inhibitors were performed by addition of 5 μL of test compound in corresponding DMSO dilutions/5 μl of kinase/antibody mixture, 5 μL of tracer into 384 well small volume plates. After incubation for 1 hour at room temperature, plates were read. Data analysis of emission ratios was according LanthaScreen Eu Kinase Binding Assay protocol.
(§2) Kinase and assay components were adjusted to final concentrations according to kit protocol. For LRRK2: 5 nM wt human LRRK2, catalytic site, or G2019S human LRRK2, catalytic site (ThermoFisher/USA), 2 nM Eu-Anti-GST Antibody, 10 nM Kinase Tracer 236 in 1× Kinase Buffer A. For NUAK1: 8 nM wt human NUAK1, full length (ThermoFisher/USA), 2 nM Eu-Anti-His Antibody, 5 nM Kinase Tracer 236 in 1× Kinase Buffer A.

[2] = target: T2, wt human TYK2, catalytic site (Homo sapiens, UniProt P29597); experiment: HTRF KinEASE assay, TYK2; assay type: biochemical; settings: 1 μM ATP; read-out: IC50, Activity Toward TYK2
T2 construct: wt human TYK2, catalytic site; purchased SignalChem
T2 sequence (P29597 897-1176 limits assumed): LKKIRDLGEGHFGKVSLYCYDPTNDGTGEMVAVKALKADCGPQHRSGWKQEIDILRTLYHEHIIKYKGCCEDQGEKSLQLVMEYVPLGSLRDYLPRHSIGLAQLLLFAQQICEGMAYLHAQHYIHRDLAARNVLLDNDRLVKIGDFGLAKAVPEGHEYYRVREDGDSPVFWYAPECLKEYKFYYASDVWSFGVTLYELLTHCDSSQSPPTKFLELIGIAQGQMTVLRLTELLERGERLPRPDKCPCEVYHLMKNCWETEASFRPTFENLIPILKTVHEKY
Outline: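 HTRF KinEASE-TK readout with 1 μM biotinylated TK substrate in 1× kinase buffer, ≥30 min at room temperature, then antibody/streptavidin-XL665 detection for 60 min. TYK2 at 2 nM with 1 μM ATP; JAK2 at 1 nM with 100 μM ATP. Analysis uses emission ratios.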

[3] = target: T3, wt human JAK1, catalytic site (Homo sapiens, UniProt P23458); experiment: HTRF KinEASE assay, JAK1; assay type: biochemical; settings: 2.5 μM ATP; read-out: IC50, Activity Toward JAK1
T3 construct: wt human JAK1, catalytic site; purchased ThermoFisher
T3 sequence (P23458 875-1153 limits assumed): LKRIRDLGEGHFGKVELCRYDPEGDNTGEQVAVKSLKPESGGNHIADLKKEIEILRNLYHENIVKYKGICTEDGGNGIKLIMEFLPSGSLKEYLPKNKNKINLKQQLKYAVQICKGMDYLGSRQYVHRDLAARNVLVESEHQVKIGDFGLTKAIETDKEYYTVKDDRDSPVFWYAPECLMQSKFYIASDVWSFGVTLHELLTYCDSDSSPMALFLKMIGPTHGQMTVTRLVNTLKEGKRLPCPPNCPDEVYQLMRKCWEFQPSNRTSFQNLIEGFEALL
Outline: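 Two-step HTRF KinEASE assay: compound, kinase/biotinylated TK substrate and ATP were incubated at least 30 min at room temperature. Antibody plus streptavidin-XL665 was then added and plates were read after 60 min. Inhibition was derived from emission ratios according to the kit protocol.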

[4] = target: T4, wt human LRRK2, catalytic site (Homo sapiens, UniProt Q5S007); experiment: TR-FRET LanthaScreen Eu Kinase Binding Assay, LRRK2 wt; settings: one range stated for wt and G2019, read-out: IC50, Activity Toward LRRK2(Wt)
T4 construct: 5 nM wt human LRRK2, catalytic site; purchased ThermoFisher
T4 sequence (Q5S007 970-2527 limits assumed): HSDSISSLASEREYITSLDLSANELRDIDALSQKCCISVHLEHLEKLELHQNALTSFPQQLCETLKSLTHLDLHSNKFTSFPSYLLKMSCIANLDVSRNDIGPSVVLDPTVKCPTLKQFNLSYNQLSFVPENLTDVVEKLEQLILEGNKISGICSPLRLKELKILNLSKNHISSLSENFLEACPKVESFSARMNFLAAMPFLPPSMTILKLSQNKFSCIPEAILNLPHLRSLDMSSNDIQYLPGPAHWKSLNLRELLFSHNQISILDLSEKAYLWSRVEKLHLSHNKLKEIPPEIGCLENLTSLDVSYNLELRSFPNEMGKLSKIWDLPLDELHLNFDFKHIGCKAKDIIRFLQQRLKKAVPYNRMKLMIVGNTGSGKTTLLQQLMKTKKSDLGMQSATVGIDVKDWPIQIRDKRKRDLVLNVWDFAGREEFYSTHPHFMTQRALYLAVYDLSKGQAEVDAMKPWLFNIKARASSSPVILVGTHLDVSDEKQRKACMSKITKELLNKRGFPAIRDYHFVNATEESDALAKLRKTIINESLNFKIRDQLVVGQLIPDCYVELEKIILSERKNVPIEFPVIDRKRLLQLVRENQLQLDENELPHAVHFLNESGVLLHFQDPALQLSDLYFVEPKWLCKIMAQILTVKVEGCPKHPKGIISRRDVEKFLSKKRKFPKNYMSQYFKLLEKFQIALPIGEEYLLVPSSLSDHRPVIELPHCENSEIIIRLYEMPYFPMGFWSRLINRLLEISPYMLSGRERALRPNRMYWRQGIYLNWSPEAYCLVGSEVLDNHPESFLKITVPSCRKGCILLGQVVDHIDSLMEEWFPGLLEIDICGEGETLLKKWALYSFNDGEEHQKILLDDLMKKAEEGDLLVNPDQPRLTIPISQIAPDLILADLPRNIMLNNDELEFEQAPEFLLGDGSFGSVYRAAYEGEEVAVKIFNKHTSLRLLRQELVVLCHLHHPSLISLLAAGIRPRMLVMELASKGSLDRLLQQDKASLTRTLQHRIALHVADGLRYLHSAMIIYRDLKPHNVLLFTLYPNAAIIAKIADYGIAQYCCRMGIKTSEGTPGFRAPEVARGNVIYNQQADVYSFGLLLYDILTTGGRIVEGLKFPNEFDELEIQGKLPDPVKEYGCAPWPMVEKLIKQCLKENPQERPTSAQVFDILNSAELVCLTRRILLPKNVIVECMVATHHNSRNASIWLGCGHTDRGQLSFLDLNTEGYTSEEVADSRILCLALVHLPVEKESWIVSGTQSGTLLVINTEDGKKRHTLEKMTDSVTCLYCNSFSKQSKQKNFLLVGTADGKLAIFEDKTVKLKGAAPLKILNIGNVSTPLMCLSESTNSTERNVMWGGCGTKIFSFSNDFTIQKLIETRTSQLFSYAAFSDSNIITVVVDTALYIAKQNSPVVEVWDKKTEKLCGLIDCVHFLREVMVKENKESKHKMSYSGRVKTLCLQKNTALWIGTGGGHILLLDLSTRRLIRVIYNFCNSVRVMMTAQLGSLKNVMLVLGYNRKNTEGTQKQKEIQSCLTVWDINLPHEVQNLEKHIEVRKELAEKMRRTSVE
Method: as §1, §2

T1 sequence (Q5S007 970-2527 G2019S limits assumed): as the sequence (Q5S007 970-2527 limits assumed) above, with G1050S counted along it

CCNC(=O)c1ccc(Nc2cn(-c3c(Cl)cccc3Cl)nc2C(N)=O)cc1 [compound 34, 1-(2,6-dichlorophenyl)-4-((4-(ethylcarbamoyl)phenyl)amino)-1H-pyrazole-3-carboxamide]
IC50 [1]: 100 to 1000 nM | IC50 [2]: 10 to 100 nM | IC50 [3]: 10 to 100 nM | IC50 [4]: 100 to 1000 nM

NC(=O)c1nn(-c2c(Cl)cccc2Cl)cc1Nc1ccc(C(=O)N2CC3(CCC3)C2)cc1 [compound 46, 4-((4-(2-azaspiro[3.3]heptane-2-carbonyl)phenyl)amino)-1-(2,6-dichlorophenyl)-1H-pyrazole-3-carboxamide]
IC50 [1]: 100 to 1000 nM | IC50 [2]: < 10 nM | IC50 [3]: < 10 nM | IC50 [4]: 100 to 1000 nM

Cc1cccc2nnc(-c3ccc(Nc4cn(-c5c(Cl)cccc5Cl)nc4C(N)=O)cc3)n12 [compound 376, 1-(2,6-dichlorophenyl)-4-((4-(5-methyl-[1,2,4]triazolo[4,3-a]pyridin-3-yl)phenyl)amino)-1H-pyrazole-3-carboxamide]
IC50 [1]: 100 to 1000 nM | IC50 [2]: 10 to 100 nM | IC50 [3]: 10 to 100 nM | IC50 [4]: 100 to 1000 nM

CC(C)(C)C(=O)c1ccc(Nc2cn(-c3c(F)cccc3Cl)nc2C(N)=O)cc1 [compound 42, 1-(2-chloro-6-fluorophenyl)-4-((4-pivaloylphenyl)amino)-1H-pyrazole-3-carboxamide]
IC50 [1]: 100 to 1000 nM | IC50 [2]: < 10 nM | IC50 [3]: < 10 nM | IC50 [4]: 100 to 1000 nM

Cn1nc(C(F)(F)F)nc1-c1ccc(Nc2cn(-c3c(F)cccc3Cl)nc2C(N)=O)cc1 [compound 231, 1-(2-chloro-6-fluorophenyl)-4-((4-(1-methyl-3-(trifluoromethyl)-1H-1,2,4-triazol-5-yl)phenyl)amino)-1H-pyrazole-3-carboxamide]
IC50 [1]: 100 to 1000 nM | IC50 [2]: < 10 nM | IC50 [3]: < 10 nM | IC50 [4]: 100 to 1000 nM

COCc1nc(C(F)(F)F)nn1-c1ccc(Nc2cn(-c3c(F)cccc3F)nc2C(N)=O)cc1 [compound 299, 1-(2,6-difluorophenyl)-4-((4-(5-(methoxymethyl)-3-(trifluoromethyl)-1H-1,2,4-triazol-1-yl)phenyl)amino)-1H-pyrazole-3-carboxamide]
IC50 [1]: 100 to 1000 nM | IC50 [2]: < 10 nM | IC50 [3]: 100 to 1000 nM | IC50 [4]: 100 to 1000 nM

NC(=O)c1nn(-c2c(F)cccc2F)cc1Nc1nc2ccccc2[nH]1 [compound 11, 4-((1H-benzo[d]imidazol-2-yl)amino)-1-(2,6-difluorophenyl)-1H-pyrazole-3-carboxamide]
IC50 [1]: 100 to 1000 nM | IC50 [2]: 100 to 1000 nM | IC50 [3]: 100 to 1000 nM | IC50 [4]: 100 to 1000 nM

CN1CCC(N(C)C(=O)c2ccc(Nc3cn(-c4c(Cl)cccc4Cl)nc3C(N)=O)cc2)CC1 [compound 50, 1-(2,6-dichlorophenyl)-4-((4-(methyl(1-methylpiperidin-4-yl)carbamoyl)phenyl)amino)-1H-pyrazole-3-carboxamide]
IC50 [1]: 100 to 1000 nM | IC50 [2]: 10 to 100 nM | IC50 [3]: 100 to 1000 nM | IC50 [4]: 100 to 1000 nM

CCn1cc(C(F)(F)F)nc1-c1ccc(Nc2cn(-c3c(F)cccc3Cl)nc2C(N)=O)cc1 [compound 303, 1-(2-chloro-6-fluorophenyl)-4-((4-(1-ethyl-4-(trifluoromethyl)-1H-imidazol-2-yl)phenyl)amino)-1H-pyrazole-3-carboxamide]
IC50 [1]: 100 to 1000 nM | IC50 [2]: 10 to 100 nM | IC50 [3]: 10 to 100 nM | IC50 [4]: 100 to 1000 nM

N#Cc1cccnc1-c1ccc(Nc2cn(-c3c(Cl)cccc3Cl)nc2C(N)=O)cc1 [compound 59, 4-((4-(3-cyanopyridin-2-yl)phenyl)amino)-1-(2,6-dichlorophenyl)-1H-pyrazole-3-carboxamide]
IC50 [1]: 100 to 1000 nM | IC50 [2]: 100 to 1000 nM | IC50 [3]: 10 to 100 nM | IC50 [4]: 100 to 1000 nM

NC(=O)c1nn(-c2c(Cl)cccc2Cl)cc1Nc1ccc(C(=O)N2CC[C@H](F)C2)nc1 [compound 355, (S)-1-(2,6-dichlorophenyl)-4-((6-(3-fluoropyrrolidine-1-carbonyl)pyridin-3-yl)amino)-1H-pyrazole-3-carboxamide]
IC50 [1]: 100 to 1000 nM | IC50 [2]: 10 to 100 nM | IC50 [3]: 100 to 1000 nM | IC50 [4]: 100 to 1000 nM

CCn1cnnc1-c1ccc(Nc2cn(-c3c(Cl)ccc(F)c3Cl)nc2C(N)=O)cc1 [compound 418, 1-(2,6-dichloro-3-fluorophenyl)-4-((4-(4-ethyl-4H-1,2,4-triazol-3-yl)phenyl)amino)-1H-pyrazole-3-carboxamide]
IC50 [1]: 100 to 1000 nM | IC50 [2]: 10 to 100 nM | IC50 [3]: 10 to 100 nM | IC50 [4]: 100 to 1000 nM

Cc1ccnn1-c1ccc(Nc2cn(-c3c(F)cccc3Cl)nc2C(N)=O)cc1 [compound 233, 1-(2-chloro-6-fluorophenyl)-4-((4-(5-methyl-1H-pyrazol-1-yl)phenyl)amino)-1H-pyrazole-3-carboxamide]
IC50 [1]: 100 to 1000 nM | IC50 [2]: 10 to 100 nM | IC50 [3]: 10 to 100 nM | IC50 [4]: 100 to 1000 nM

CCn1cc(C#N)nc1-c1ccc(Nc2cn(-c3c(Cl)cccc3Cl)nc2C(N)=O)cc1 [compound 310, 4-((4-(4-cyano-1-ethyl-1H-imidazol-2-yl)phenyl)amino)-1-(2,6-dichlorophenyl)-1H-pyrazole-3-carboxamide]
IC50 [1]: 100 to 1000 nM | IC50 [2]: 10 to 100 nM | IC50 [3]: 10 to 100 nM | IC50 [4]: 100 to 1000 nM

NC(=O)c1nn(-c2c(F)cccc2F)cc1Nc1cccc(C(=O)N2CCOCC2)c1 [compound 18, 1-(2,6-difluorophenyl)-4-((3-(morpholine-4-carbonyl)phenyl)amino)-1H-pyrazole-3-carboxamide]
IC50 [1]: 100 to 1000 nM | IC50 [2]: 100 to 1000 nM | IC50 [3]: 100 to 1000 nM | IC50 [4]: 100 to 1000 nM

CP(C)(=O)c1ccc(Nc2cn(-c3c(F)cccc3F)nc2C(N)=O)cc1 [compound 64, 1-(2,6-difluorophenyl)-4-((4-(dimethylphosphoryl)phenyl)amino)-1H-pyrazole-3-carboxamide]
IC50 [1]: 100 to 1000 nM | IC50 [2]: 100 to 1000 nM | IC50 [3]: 100 to 1000 nM | IC50 [4]: 100 to 1000 nM

CC1(C)CN(C(=O)c2ccc(Nc3cn(-c4c(Cl)cccc4Cl)nc3C(N)=O)cc2)C1 [compound 456, 1-(2,6-dichlorophenyl)-4-((4-(3,3-dimethylazetidine-1-carbonyl)phenyl)amino)-1H-pyrazole-3-carboxamide]
IC50 [1]: 100 to 1000 nM | IC50 [2]: < 10 nM | IC50 [3]: 10 to 100 nM | IC50 [4]: 100 to 1000 nM

NC(=O)c1nn(-c2c(Cl)cccc2Cl)cc1Nc1ccc(C(=O)N2CC[C@H](F)C2)cc1 [compound 316, (S)-1-(2,6-dichlorophenyl)-4-((4-(3-fluoropyrrolidine-1-carbonyl)phenyl)amino)-1H-pyrazole-3-carboxamide]
IC50 [1]: 100 to 1000 nM | IC50 [2]: < 10 nM | IC50 [3]: 10 to 100 nM | IC50 [4]: 100 to 1000 nM

NC(=O)c1nn(-c2c(Cl)cccc2Cl)cc1Nc1ccc(-n2ncc3c2CCOC3)cc1 [compound 70, 1-(2,6-dichlorophenyl)-4-((4-(6,7-dihydropyrano[4,3-c]pyrazol-1(4H)-yl)phenyl)amino)-1H-pyrazole-3-carboxamide]
IC50 [1]: 100 to 1000 nM | IC50 [2]: 10 to 100 nM | IC50 [3]: 100 to 1000 nM | IC50 [4]: 100 to 1000 nM

NC(=O)c1nn(-c2c(Cl)cccc2Cl)cc1Nc1ccc(-c2nnc3cncc(C(F)(F)F)n23)nc1 [compound 472, 1-(2,6-dichlorophenyl)-4-((6-(5-(trifluoromethyl)-[1,2,4]triazolo[4,3-a]pyrazin-3-yl)pyridin-3-yl)amino)-1H-pyrazole-3-carboxamide]
IC50 [1]: 100 to 1000 nM | IC50 [2]: 10 to 100 nM | IC50 [3]: 10 to 100 nM | IC50 [4]: 100 to 1000 nM

NC(=O)c1nn(-c2c(Cl)cccc2Cl)cc1Nc1ccc(C(=O)N2CC(O)C2)cc1 [compound 426, 1-(2,6-dichlorophenyl)-4-((4-(3-hydroxyazetidine-1-carbonyl)phenyl)amino)-1H-pyrazole-3-carboxamide]
IC50 [1]: 100 to 1000 nM | IC50 [2]: < 10 nM | IC50 [3]: 10 to 100 nM | IC50 [4]: 100 to 1000 nM

CCNC(=O)c1ccc(Nc2cn(-c3c(F)cccc3Cl)nc2C(N)=O)cc1 [compound 40, 1-(2-chloro-6-fluorophenyl)-4-((4-(ethylcarbamoyl)phenyl)amino)-1H-pyrazole-3-carboxamide]
IC50 [1]: 100 to 1000 nM | IC50 [2]: 10 to 100 nM | IC50 [3]: 10 to 100 nM | IC50 [4]: 100 to 1000 nM
